Measured values published in paper PMC10508484, “Development and application of a PBPK modeling strategy to support antimalarial drug development” (CPT: Pharmacometrics & Systems Pharmacology, 2023).
Where two headings read alike, the source gives them in different places.

Legend:
[1] = In vitro flags for victim and perpetrator properties conferring DDI liability; type: in vitro ADME, human; conditions: in vitro flag, mainly based on in vitro determinations
CYP2C8 = target: T1, CYP2C8 (Homo sapiens, UniProt P10632); assay: Metabolism by CYP2C8 (CLint, fm); conditions: for fmCYP2C8: fraction metabolised used in the PBPK model
T1 sequence (P10632 1-490): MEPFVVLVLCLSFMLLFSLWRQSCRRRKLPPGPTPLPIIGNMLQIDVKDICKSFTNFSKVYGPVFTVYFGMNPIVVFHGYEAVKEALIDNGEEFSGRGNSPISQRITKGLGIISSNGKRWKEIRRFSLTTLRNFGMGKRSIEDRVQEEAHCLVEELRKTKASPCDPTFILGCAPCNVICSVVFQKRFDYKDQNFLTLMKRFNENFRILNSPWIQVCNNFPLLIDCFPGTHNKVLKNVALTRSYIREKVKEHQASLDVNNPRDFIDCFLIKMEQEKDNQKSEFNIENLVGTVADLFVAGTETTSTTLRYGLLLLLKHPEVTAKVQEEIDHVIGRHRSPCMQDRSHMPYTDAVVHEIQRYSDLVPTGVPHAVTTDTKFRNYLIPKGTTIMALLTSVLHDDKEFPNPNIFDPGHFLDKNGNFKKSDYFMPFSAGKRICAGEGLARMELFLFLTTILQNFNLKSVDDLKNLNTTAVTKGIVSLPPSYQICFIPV
From the text: (§1) In nearly all cases the fraction of systemic elimination metabolised by a given enzyme (fm) determined in vitro was unavailable in the literature.

[2] = cited from earlier work; for Cmax Obs: ref Gustafsson et al., 1983 16
[3] = ref Charman et al., 2020 1; cited from earlier work
[4] = PBPK input; ref atovaquone oral bioavailability Lavelle et al., 1994 17; chloroquine Walker et al., 1987 29; doxycycline Fabre et al., 1966 45, Saivin et al., 1988 46; proguanil Ke et al., 2014 64; pyronaridine mass balance study Morris et al., 2015 72; cited from earlier work
[5] = cited from earlier work
[6] = measured (0.4 mg/mL protein where stated); ref Charman et al., 2020 1; cited from earlier work
[7] = In vivo clearance (CL IV, CL PO, CL renal, fe); conditions: chloroquine model
CYP3A4 = CYP3A4 (Homo sapiens, UniProt P08684)
From the text: as §1

CYP2B6 = assay: Metabolism by CYP2B6 (CLint, Vmax, Km, fm); type: in vitro ADME, human
From the text: as §1

CYP2D6 [8] = target: T2, CYP2D6 (Homo sapiens, UniProt P10635); assay: Metabolism by CYP2D6 (CLint, fm)
From the text: as §1

CYP1A2 [9] = assay: Metabolism by CYP1A2 (CLint, fm); type: in vitro ADME, human
From the text: as §1

in vitro = conditions: human, plasma
[10] = Blood to plasma ratio (B:P); conditions: PBPK input; unpublished (in-house) data
[11] = PBPK absorption inputs (fa, ka, tlag, Qgut, Fg); design: species or system human; conditions: Relative fa (in vivo fasted AUC / fed AUC; Reuter et al., 2015 for DHA, Crevoisier et al., 1997 for mefloquine)
From the text: Initial models were built based on available physicochemical and in vitro data to give a ‘bottom-up’ prediction. Areas of uncertainty were highlighted, and the potential impact of uncertainty associated with such parameters was investigated using sensitivity analysis. Available clinical PK data were then used to evaluate and, if required, refine the initial ‘bottom-up’ model. Care was taken to split data into training and test sets wherever possible. The model verification strategy differed across compounds based on availability of different types of clinical data. […] Clinical studies used for drug model development and verification are reported in Table S2 (PK) and Table S3 (DDIs).

UGT1A9 = assay: Metabolism by UGT1A9; type: in vitro ADME, human; conditions: equal contribution assumed
From the text: as §1

UGT2B7 = assay: Metabolism by UGT2B7; type: in vitro ADME, human; conditions: equal contribution assumed
From the text: as §1

[12] = PBPK input; ref Charman et al., 2020 1; cited from earlier work
[13] = ref amodiaquine, DEAQ Hietala, 2009 2; atovaquone Nixon et al., 2013 13; DHA Batty et al., 2004 41; mefloquine, tafenoquine (also AGP) Zsila et al., 2008 54; cited from earlier work
Caco-2 cells = conditions: cited from earlier work
CYP1A2 [14] = conditions: read-out: CYP1A2 Ki; ref Charman et al., 2020 1; cited from earlier work
[15] = Fraction unbound in human liver microsomes (fumic); conditions: extrapolated from value measured at 0.4 mg/mL to 0.1 mg/mL, method of Austin et al., 2002
CYP2D6 [16] = target: T2, CYP2D6; assay: CYP2D6 inhibition
[17] = PBPK input, ref amodiaquine, DEAQ Winstanley et al., 1987 9, atovaquone Rolan et al., 1997 14, azithromycin Lalak et al., 1993 23, carboxyprimaquine Mihaly et al., 1985 26, chloroquine Walker et al., 1987 29, DHA EMA Website, 44, doxycycline Raghuram et al., 1982 48, Nguyen et al., 1989 49, mefloquine Schwartz et al., 1982 57, primaquine White, 1985 62, proguanil Jeppesen et al., 1997 34, pyrimeth
[18] = retrograde calculations from CL PO, blood
[19] = fraction metabolised used in the PBPK model
[20] = clinically observed oral (in vivo) clearance, pyronaridine: blood, ref amodiaquine Winstanley et al., 1987 9, DEAQ Akande et al., 2015 8, Scarsi et al., 2014 35, Tarning et al., 2012 36, Orrell et al., 2008 37, DHA Na-Bangchang et al., 2004 42, lumefantrine Lefevre et al., 2002 52, Hoglund et al., 2015 53, mefloquine Charles et al., 2007 56, proguanil Jeppesen et al., 1997 34, pyronaridine Jittama

T2 sequence (P10635 whole entry): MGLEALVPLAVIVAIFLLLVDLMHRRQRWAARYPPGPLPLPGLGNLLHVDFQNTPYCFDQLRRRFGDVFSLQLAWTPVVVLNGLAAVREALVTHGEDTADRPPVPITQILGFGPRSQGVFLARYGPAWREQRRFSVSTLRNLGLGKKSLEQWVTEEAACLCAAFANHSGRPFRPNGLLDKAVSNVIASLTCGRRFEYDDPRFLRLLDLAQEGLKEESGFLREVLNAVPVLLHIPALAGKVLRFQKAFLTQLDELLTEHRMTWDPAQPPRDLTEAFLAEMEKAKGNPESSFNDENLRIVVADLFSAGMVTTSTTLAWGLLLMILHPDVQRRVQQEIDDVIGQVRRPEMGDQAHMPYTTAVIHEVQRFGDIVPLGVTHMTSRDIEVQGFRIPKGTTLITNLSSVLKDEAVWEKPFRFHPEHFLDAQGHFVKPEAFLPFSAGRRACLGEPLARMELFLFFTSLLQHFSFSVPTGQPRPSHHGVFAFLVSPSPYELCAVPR
Chain of CYP3A4 (P08684 whole entry): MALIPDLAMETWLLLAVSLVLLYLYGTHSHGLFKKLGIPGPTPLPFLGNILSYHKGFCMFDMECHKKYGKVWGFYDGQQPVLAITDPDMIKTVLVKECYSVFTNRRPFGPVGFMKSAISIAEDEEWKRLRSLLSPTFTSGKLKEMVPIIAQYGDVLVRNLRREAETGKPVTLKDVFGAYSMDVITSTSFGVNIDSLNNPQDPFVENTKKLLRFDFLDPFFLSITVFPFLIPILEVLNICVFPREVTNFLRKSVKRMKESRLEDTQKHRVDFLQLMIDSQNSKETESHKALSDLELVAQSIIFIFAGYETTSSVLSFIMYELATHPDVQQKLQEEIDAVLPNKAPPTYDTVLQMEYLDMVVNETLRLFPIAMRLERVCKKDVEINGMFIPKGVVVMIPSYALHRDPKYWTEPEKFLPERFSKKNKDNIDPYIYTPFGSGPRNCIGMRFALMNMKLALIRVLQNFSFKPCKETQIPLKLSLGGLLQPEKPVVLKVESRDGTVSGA

SMILES: CCN(CC)CCCC(C)Nc1ccnc2cc(Cl)ccc12 (stereo not drawn) [Chloroquine, chloroquine]
- Risk as a perpetrator [1]: CYP2D6 inhibitor
- Risk as a victim [1]: Substrate of CYP2C8 and CYP3A4; renally cleared
- fmCYP2C8 (CYP2C8): 11%
- CLint CYP2C8 (CYP2C8; human): 0.27 µL/min/pmol
- Cmax Obs ([2]; 300 mg infusion (over 23.5 mins) SD): 837 ng/mL
- Cmax Obs ([2]; 300 mg soln. SD): 73.0 ng/mL
- Cmax Obs ([2]; 300 mg tablet SD): 76.0 ng/mL
- B:P [3]: 3.5
- fa [4]: 1
- CL renal [5, 17]: 24.78 L/h
- CL IV ([5]; clinically observed, ref atovaquone Lavelle et al., 1994 17, chloroquine Walker et al., 1987 29, Gustafsson et al., 1983 30, doxycycline Raghuram et al., 1982 48, Nguyen et al., 1989 49, primaquine Mihaly et al., 1985 26, quinine White et al., 1983 77, Paintaud et al., 1993 78): 39.84 L/h
- fumic [6]: 0.5
- renal clearance share of elimination [7]: 57%

SMILES: COc1ccc2nc3cc(Cl)ccc3c(Nc3cc(CN4CCCC4)c(O)c(CN4CCCC4)c3)c2n1 [Pyronaridine, pyronaridine]
- Risk as a perpetrator [1]: CYP2D6 and P‐gp inhibitor
- Risk as a victim [1]: Substrate of CYP1A2, CYP2B6, CYP2C8, CYP2D6 and CYP3A4
- CLint CYP2C8 (CYP2C8; derived from in vivo clearance by retrograde calculations): 0.19 µL/min/pmol
- fmCYP2C8 (CYP2C8): 4.8%
- fmCYP3A4 (CYP3A4): 61.1%
- CLint CYP3A4 (CYP3A4; microsomes): 0.42 µL/min/pmol
- fmCYP2B6 (CYP2B6; fraction metabolised used in the PBPK model (artemether: without induction)): 7.7%
- CLint CYP2B6 (CYP2B6; [18]): 0.47 µL/min/pmol
- fmCYP2D6 (CYP2D6 [8]; [19]): 20.6%
- CLint CYP2D6 (CYP2D6 [8]; retrograde calculations): 1.33 µL/min/pmol
- fmCYP1A2 (CYP1A2 [9]; [19]): 4.7%
- CLint CYP1A2 (CYP1A2 [9]; [18]): 0.09 µL/min/pmol
- fraction unbound (in vitro): 0.058
- fa [4]: 0.74
- CL renal [5, 17]: 0.16 L/h
- CL PO [5, 20]: 22.1 L/h
- fe (fraction excreted unchanged in urine) ([5]; ref atovaquone Rolan et al., 1997 14, mefloquine Schwartz et al., 1982 57, primaquine White, 1985 62, proguanil (extensive metabolisers) Jeppesen et al., 1997 34, pyronaridine Wattanavijitkul, 2010 74, sulfadoxine assumed with Edstein, 1987 83): 1%
- B:P [10]: 1.5

SMILES: C[C@H]1[C@@H](O)O[C@@H]2O[C@@]3(C)CC[C@H]4[C@H](C)CC[C@@H]1[C@@]24OO3 [DHA, dihydroartemisinin]
- Risk as a perpetrator [1]: CYP1A2 inhibitor
- Risk as a victim [1]: Substrate of UGT1A9 and UGT2B7
- fa ([11]; listed as DHA (administered as DHA)): 0.71
- fa ([11]; listed as DHA (administered as artesunate)): 1
- fmUGT1A9 (UGT1A9): 50%
- fmUGT2B7 (UGT2B7): 50%
- Log P [12]: 2.3
- AUC Obs ([2]; 4 mg/kg SD, 0-inf, ref Na-Bangchang et al., 2004 20): 907 ng·h/mL
- AUC Obs ([2]; 120 mg SD, 0-inf, ref Chinh et al., 2009 23): 370 ng·h/mL
- AUC Obs ([2]; 180 mg SD (artesunate), 0-inf, ref Jittamala et al., 2015 15): 1400 ng·h/mL
- AUC Obs ([2]; 240 mg SD, 0-inf, ref Le et al., 1999 22): 1980 ng·h/mL
- AUC Obs ([2]; 300 mg SD, 0-inf, ref Na-Bangchang et al., 1997 21): 2018 ng·h/mL
- Main binding protein [13]: AGP
- Caco-2 (Papp A-B) (Caco-2 cells; calibrated against propranolol, plasma as medium for atovaquone and piperaquine, ref Charman et al., 2020 1): 49 10-6 cm/s
- CL PO [5, 20]: 273.2 L/h
- Ki (CYP1A2 [14]): 4.38 µM
- fumic [15]: 0.964

SMILES: CCN(CC)Cc1cc(Nc2ccnc3cc(Cl)ccc23)ccc1O [Amodiaquine, amodiaquine]
- Risk as a victim [1]: Substrate of CYP2C8
- AUC Obs ([2]; in vivo, 540 mg): 331 ng·h/mL
- Caco-2 (Papp A-B) (Caco-2 cells; Caco-2): 9.8 10-6 cm/s
- CL PO ([5]; in vivo, po): 2500 L/h
- CL renal ([5]; in vivo): 3.5 L/h
- Ki (CYP2D6 [16]): 0.45 µM
